Experimental data published in PubChem BioAssay (NCI).
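Test compounds were applied to cells in 96-well plates for 48 hours at 5 doses. The concentration for 50% growth inhibition is given as GI50. TGI is the concentration that stops growth completely.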

How the values were obtained:
Test in all cases: NCI anticancer screen, dose series, 48 h
[1] = system: MALME-3M melanoma
[2] = system: SK-MEL-2 melanoma
[3] = system: EKVX NSCLC
[4] = system: PC-3 prostate
[5] = system: CAKI-1 renal
[6] = system: COLO 205 colon
[7] = system: 786-0 renal
[8] = system: ACHN renal
[9] = system: MDA-MB-231 breast
[10] = system: DU-145 prostate
[11] = system: SW-620 colon
[12] = system: NCI-H23 lung
[13] = system: TK-10 renal
[14] = system: BT-549 breast
[15] = system: M14 melanoma
[16] = system: SR leukemia
[17] = system: RXF 393 renal
[18] = system: SK-MEL-28 melanoma
[19] = system: MCF7 breast
[20] = system: K-562 leukemia
[21] = system: NCI-H460 lung
[22] = system: RPMI-8226 leukemia
[23] = system: NCI-H522 lung
[24] = system: U251 CNS
[25] = system: SK-OV-3 ovarian
[26] = system: MOLT-4 leukemia
[27] = system: OVCAR-5 ovarian
[28] = system: HS 578T breast
[29] = system: NCI/ADR-RES ovarian
[30] = system: UO-31 renal
[31] = system: NCI-H226 lung
[32] = system: OVCAR-4 ovarian
[33] = system: HCT-116 colon
[34] = system: SK-MEL-5 melanoma
[35] = system: SF-295 CNS
[36] = system: SF-268 CNS
[37] = system: HCT-15 colon
[38] = system: UACC-62 melanoma
[39] = system: HOP-92 NSCLC
[40] = system: MDA-MB-435
[41] = system: LOX IMVI melanoma
[42] = system: SN12C renal
[43] = system: HOP-62 NSCLC
[44] = system: A549 NSCLC
[45] = system: SNB-19 CNS
[46] = system: CCRF-CEM leukemia
[47] = system: IGROV1 ovarian
[48] = system: OVCAR-8 ovarian
[49] = system: OVCAR-3 ovarian
[50] = system: HT29 colon
[51] = system: KM12 colon
[52] = system: T-47D breast
[53] = system: HL-60(TB) leukemia
[54] = system: HCC-2998 colon
[55] = system: SNB-75 CNS
[56] = system: A498 renal
[57] = system: UACC-257 melanoma

**Q.** Which results are given for `O=C1C(Cl)=C(Nc2cccc(O)c2)C(=O)N1CCc1ccccc1`?
**A.** GI50 [1]: 16.2 µM; TGI [1]: 33 µM; GI50 [2]: 14.5 µM; TGI [2]: 33.7 µM; GI50 [3]: 19.3 µM; TGI [3]: 40.9 µM; GI50 [4]: 22.3 µM; TGI [4]: 62.7 µM; GI50 [5]: 22.5 µM; TGI [5]: 56.3 µM; GI50 [6]: 33.2 µM; TGI [6]: > 100 µM; GI50 [7]: 19.2 µM; TGI [7]: 36.6 µM; GI50 [8]: 22.9 µM; TGI [8]: 47.5 µM; GI50 [9]: 23.3 µM; TGI [9]: 44.4 µM; GI50 [10]: 15.3 µM; TGI [10]: 32.5 µM; GI50 [11]: 30.9 µM; TGI [11]: 77.5 µM; GI50 [12]: 17.7 µM; TGI [12]: 36.4 µM; GI50 [13]: 23.1 µM; TGI [13]: 48.4 µM; GI50 [14]: 17.9 µM; TGI [14]: 47.1 µM; GI50 [15]: 17.7 µM; TGI [15]: 37.9 µM; GI50 [16]: 4.61 µM; TGI [16]: 64.3 µM; GI50 [17]: 25.9 µM; TGI [17]: 71.4 µM; GI50 [18]: 19.8 µM; TGI [18]: 40.8 µM; GI50 [19]: 14.4 µM; TGI [19]: 33.6 µM; GI50 [20]: 16.8 µM; TGI [20]: 63.9 µM; GI50 [21]: 18 µM; TGI [21]: 39.8 µM; GI50 [22]: 5.03 µM; TGI [22]: 37.6 µM; GI50 [23]: 13.2 µM; TGI [23]: 29.2 µM; GI50 [24]: 19.1 µM; TGI [24]: 42.1 µM; GI50 [25]: 32.1 µM; TGI [25]: > 100 µM; GI50 [26]: 9.4 µM; TGI [26]: 59 µM; GI50 [27]: 20.7 µM; TGI [27]: 46.8 µM; GI50 [28]: 17.5 µM; TGI [28]: 40.5 µM; GI50 [29]: 20.1 µM; TGI [29]: 49 µM; GI50 [30]: 16.7 µM; TGI [30]: 36.8 µM; GI50 [31]: 22 µM; TGI [31]: 45.6 µM; GI50 [32]: 20.1 µM; TGI [32]: 55.3 µM; GI50 [33]: 24.3 µM; TGI [33]: 73.3 µM; GI50 [34]: 20.2 µM; TGI [34]: 38 µM; GI50 [35]: 21.8 µM; TGI [35]: 46.6 µM; GI50 [36]: 17 µM; TGI [36]: 42.2 µM; GI50 [37]: 22.4 µM; TGI [37]: 57.8 µM; GI50 [38]: 13.9 µM; TGI [38]: 29.1 µM; GI50 [39]: 15.9 µM; TGI [39]: 36.4 µM; GI50 [40]: 15.7 µM; TGI [40]: 37.1 µM; GI50 [41]: 16.9 µM; TGI [41]: 39.6 µM; GI50 [42]: 16 µM; TGI [42]: 32.6 µM; GI50 [43]: 19.2 µM; TGI [43]: 38.4 µM; GI50 [44]: 20.6 µM; TGI [44]: 46.4 µM; GI50 [45]: 22.6 µM; TGI [45]: 49.4 µM; GI50 [46]: 12.6 µM; TGI [46]: 69.4 µM; GI50 [47]: 15 µM; TGI [47]: 35.4 µM; GI50 [48]: 21.5 µM; TGI [48]: 51.1 µM; GI50 [49]: 15.4 µM; TGI [49]: 34.3 µM; GI50 [50]: 24.3 µM; TGI [50]: 82.5 µM; GI50 [51]: 15.5 µM; TGI [51]: 34 µM; GI50 [52]: 40.5 µM; TGI [52]: > 100 µM

**Q.** Which results are given for `COC1CCN(N(C)C)O1` (centres undefined)?
**A.** TGI [53]: > 100 µM; TGI [1]: > 100 µM; TGI [2]: > 100 µM; TGI [3]: > 100 µM; TGI [4]: > 100 µM; TGI [5]: > 100 µM; TGI [6]: > 100 µM; TGI [7]: > 100 µM; TGI [8]: > 100 µM; TGI [9]: > 100 µM; TGI [10]: > 100 µM; TGI [11]: > 100 µM; TGI [12]: > 100 µM; TGI [13]: > 100 µM; TGI [14]: > 100 µM; TGI [15]: > 100 µM; TGI [16]: > 100 µM; TGI [17]: > 100 µM; TGI [18]: > 100 µM; TGI [54]: > 100 µM; TGI [19]: > 100 µM; TGI [55]: > 100 µM; TGI [20]: > 100 µM; TGI [21]: > 100 µM; TGI [22]: > 100 µM; TGI [23]: > 100 µM; TGI [24]: > 100 µM; TGI [26]: > 100 µM; TGI [27]: > 100 µM; TGI [28]: > 100 µM; TGI [29]: > 100 µM; TGI [30]: > 100 µM; TGI [31]: > 100 µM; TGI [32]: > 100 µM; TGI [33]: > 100 µM; TGI [34]: > 100 µM; TGI [35]: > 100 µM; TGI [36]: > 100 µM; TGI [37]: > 100 µM; TGI [38]: > 100 µM; TGI [40]: > 100 µM; TGI [41]: > 100 µM; TGI [42]: > 100 µM; TGI [43]: > 100 µM; TGI [56]: > 100 µM; TGI [44]: > 100 µM; TGI [57]: > 100 µM; TGI [45]: > 100 µM; TGI [46]: > 100 µM; TGI [47]: > 100 µM; TGI [48]: > 100 µM; TGI [49]: > 100 µM; TGI [50]: > 100 µM; TGI [51]: > 100 µM; TGI [52]: > 100 µM
